Data published in patent publication US8349835B2, “Aromatic ring fused triazine derivatives and uses thereof” (Shenyang Pharmaceutical University, priority 2008, dated 2013).

Tests used:
[1] = test system: Microvascular Endothelial Cells (MVEC); assay: MTT growth inhibition of MVEC; assay type: cell-based; conditions: Endothelial cell, 96 h, 4 days culture with drug, read-out: IG50 on inhibiting growth of MVEC
Outline: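 MVEC were seeded at 2×10^4 cells/mL in DMEM with 10% FBS and allowed to attach for 24 h, then treated with compound at final concentrations of 5–80 μmol/L (triplicates) for 4 days at 37 °C. MTT (4 h) absorbance at 570 nm gave % growth inhibition relative to untreated cells.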

[2] = test system: murine melanoma cells (B16F0); assay: MTT growth inhibition of B16F0; assay type: cell-based; conditions: Mus musculus, 96 h, 4 days, read-out: IG50 B16F0
Protocol: (§1) In Vitro Anti-Tumor Activity Test
(§2) Put cell suspension into centrifugal tubes with a pipette under sterile conditions, then the cell suspension was centrifuged for 3 minutes at 1300 rpm. Discarded the supernatant lightly and added fresh culture medium. Mixed the cells by pipetting, then transferred the cells into culture flasks, and put them into the CO2 incubator. Changed the culture medium once after 24 hours.
(§3) Human prostate cancer cells (DU145, PC-3) were cultured in a medium containing RPMI1640 basic medium supplemented with 10% heat-inactivated FBS, 100 IU/mL penicillin, 100 μg/mL streptomycin and 1 mmol/L L-glutamine. Human breast carcinoma cells (T47D, MDA-MB231) were cultured in a medium containing RPM11640 basic medium supplemented with 10% heat-inactivated FBS, 5 μg/mL insulin, 100 IU/mL penicillin, 100 μg/mL streptomycin and 1 mmol/L L-glutamine. Human breast carcinoma cells (MCF-7) were cultured in a medium containing DMEM basic medium supplemented with 10% heat-inactivated FBS, 5 μg/mL insulin, 100 IU/mL penicillin, 100 μg/mL streptomycin and […]. Murine Lewis lung cancer cells (LL/2), murine melanoma cells (B16FD) and Microvascular Endothelial Cells (MVEC) were cultured in a medium containing DMEM basic medium supplemented with 10% heat-inactivated FBS, 4.5 g/L glucose, 1.5 g/L NaHCO3, 100 IU/mL penicillin, 100 μg/mL streptomycin and 4 mmol/L L-glutamine. All these cell lines were incubated at 37° C. biochemical incubator with 5% CO2 saturated humidity.
(§4) After resuscitation, the cells were passed for 2-3 generations till they became stable, then they were used for the experiments. Each passage was based on the standard that all cells were spread over the bottoms of culture flasks.
(§5) Cells were digested off from the bottoms of culture flasks with trypsin (0.25%). The cell dissociation buffer was transferred into centrifuge tubes, added medium to stop the digestion, and centrifuged for 3 minutes at 1300 rpm. Discarded the supernatant lightly and added fresh culture medium (5 mL). Mixed the cells by pipetting, then added 10 μL of the cell suspension into the cell counting plate, and adjusted the cell concentration to 2×10^4 cells/mL. Added 100 μL of the cell suspension to all wells on the 96 well plates, except A1 well as the blank control. Put the plates into the biochemical incubator for 24 hours and to make sure the cells grew along the walls. […]
(§6) Added 50 μL MTT liquids (2 mg/mL) into each well, put the culture plates into the biochemical incubator for 4 h, discarded MTT liquids (TCC), added 200 μL DMSO, then oscillated for 10 minutes on the magnetic oscillator to make sure that the survived cells and the reaction product of MTT were fully dissolved. Detected and recorded the absorbance (OD) values of each well at the wavelength of 570 nm using the microplate reader. […] The cell growth inhibition rates under each drug concentration were calculated by the following formula. […] Inhibition rate of growth(%)=(1−The absorbance(OD)of cells with tested drugs/The absorbance(OD)of the blank control group)×100%
(§7) The absorbance (OD) of cells with tested drugs: OD value is measured with the test drugs.
(§8) The absorbance (OD) of the blank control group: OD value is measured without the test drugs. […]

[3] = test system: Human Umbilical Vein Endothelial Cells (HUVEC); assay: MTT growth inhibition of HUVEC; assay type: cell-based; conditions: 96 h, 4 days, read-out: IG50 HUVEC
Protocol: as §1, §2, §4
Cells were digested off from the bottoms of culture flasks with trypsin (0.25%). The cell dissociation buffer was transferred into centrifuge tubes, added medium to stop the digestion, and centrifuged for 3 minutes at 1300 rpm. Discarded the supernatant lightly and added fresh culture medium (5 mL). Mixed the cells by pipetting, then added 10 μL of the cell suspension into the cell counting plate, and adjusted the cell concentration to 2×10^4 cells/mL. Added 100 μL of the cell suspension to all wells on the 96 well plates, except A1 well as the blank control. Put the plates into the biochemical incubator for 24 hours and to make sure the cells grew along the walls.
The drugs were dissolved in 80 mmol/L DMSO first, and then diluted the drugs with ethanol to 8 mmol/L. The solution was further diluted with the culture medium to different concentrations as 160 μmol/L, 120 μmol/L, 80 μmol/L, 40 μmol/L, 20 μmol/L and 10 μmol/L. Added 100 μL of the drug solution to each well on the 96 well plates. Therefore, the final concentrations of the drugs that were added to the cells were 80 μmol/L, 40 μmol/L, 20 μmol/L, 10 μmol/L and 5 μmol/L, and each concentration were repeated in three parallel wells. Put the culture plates into the biochemical incubator to culture continuously for 4 days.
Added 50 μL MTT liquids (2 mg/mL) into each well, put the culture plates into the biochemical incubator for 4 h, discarded MTT liquids (TCC), added 200 μL DMSO, then oscillated for 10 minutes on the magnetic oscillator to make sure that the survived cells and the reaction product of MTT were fully dissolved. Detected and recorded the absorbance (OD) values of each well at the wavelength of 570 nm using the microplate reader. The OD values of cells without tested drugs were used as control. The cell growth inhibition rates under each drug concentration were calculated by the following formula. […] Inhibition rate of growth(%)=(1−The absorbance(OD)of cells with tested drugs/The absorbance(OD)of the blank control group)×100%
as §7
The absorbance (OD) of the blank control group: OD value is measured without the test drugs.
8) The Growth Inhibition Effect of Compounds on Human Breast Carcinoma Cells (T47D, MDA-MB231, MCF-7), Human Prostate Cancer (DUI45, PC-3), Murine Lewis Lung Cancer Cells (LL/2), Murine Melanoma Cells(B16F0) and Human Umbilical Vein Endothelial Cells (HUVEC) (Table 2).

[4] = test system: Murine Lewis lung cancer cells (LL/2); assay: MTT growth inhibition of LL/2; assay type: cell-based; conditions: Mus musculus, Lewis lung carcinoma, 96 h; LL/2, MTT, 4 days; read-out: IG50 LL/2
Protocol: as §1, §2, §3, §4, §5, §6, §7, §8

[5] = test system: Human prostate cancer cells (DU145); assay: MTT growth inhibition of DU145; assay type: cell-based; conditions: DU-145, 96 h, 4 days, read-out: IG50 DU145
Protocol: as §1, §2, §3, §4, §5, §6, §7, §8

[6] = test system: Human prostate cancer cells (PC-3); assay: MTT growth inhibition of PC-3; assay type: cell-based; conditions: 96 h, PC-3, MTT, 4 days, read-out: IG50 PC-3
Protocol: as §1, §2, §3, §4, §5, §6, §7, §8

[7] = test system: Human breast carcinoma cells (T47D); assay: MTT growth inhibition of T47D; assay type: cell-based; conditions: 96 h, 4 days, read-out: IG50 T47D
Protocol: as §1, §2, §3, §4, §5, §6, §7, §8

[8] = test system: Human breast carcinoma cells (MCF-7); assay: MTT growth inhibition of MCF-7; assay type: cell-based; conditions: MCF7, 96 h, MCF-7, MTT, 4 days, read-out: IG50 MCF-7
Protocol: as §1, §2, §3, §4
(§9) Cells were digested off from the bottoms of culture flasks with trypsin (0.25%). The cell dissociation buffer was transferred into centrifuge tubes, added medium to stop the digestion, and centrifuged for 3 minutes at 1300 rpm. […]
as §6, §7, §8

[9] = test system: Human breast carcinoma cells (MDA-MB231); assay: MTT growth inhibition of MDA-MB231; assay type: cell-based; conditions: MDA-MB-231, 96 h, 4 days, read-out: IG50 MDA-MB231
Protocol: as §1, §2, §3, §4, §9, §6, §7, §8

in vivo = conditions: both sexes, mouse, intraperitoneal, Kunming mice, peritoneal injection, single administration, observed for one week
Protocol: 9) Acute Toxicity Testing
Animals: healthy mice of Kunming species, female and male each account for 50%, and the weights range from 18 to 22 g. All the mice were obtained from the laboratory animal center of Shenyang Pharmaceutical University. Certificate number: Liao Shi He Zi No. 033
Medicine preparation: drugs were added in 0.2% Polysorbate 80 (Tween-80) to make suspension. The dosage of tested compounds was indicated with mg/kg.
Test period and Observed index: observed for one week after the administration. The toxic reaction information of the mice was recorded everyday during the observation period. The death of mice was regarded as the principal index. Half lethal doses (LD50, mg/kg) of the compounds one week after the drug administration were calculated according to the method of weighted regression.

Rat aortic ring = assay: Rat Aortic Ring Assay; assay type: cell-based; conditions: observed on the sixth day
Outline: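 1 mm abdominal aortic rings from 6-week-old SD animals embedded in Matrigel, cultured in DMEM/10% FBS with compound at various concentrations (≥3 wells), medium and compound renewed day 3. Microvessel area imaged on day 6 (×100, 3 random rings); inhibition rate scored: ⋆<30-60%, ⋆⋆60-90%, ⋆⋆⋆>90%.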

VEGFR-2 = VEGFR-2 (Homo sapiens, UniProt P35968); assay: VEGFR-2 inhibition rate test (kinase assay kit, colorimetric ELISA); conditions: concentration not given
[10] = test system: chorioallantoic membrane vessels; assay: Activity test by chick chorioallantoic membrane method; assay type: in vivo; conditions: 5 uL medicine on cellulose membrane, chick embryo, 2 days
Protocol: After the shell membrane became wet, tore it open with ophthalmological tweezers so to expose the chorioallantoic membrane. • 6) Added 5 uL of selected medicine to a 0.5×0.5 cm cellulose membrane sterilized by high pressure, then set the membrane on the part of the chorioallantoic membrane with fewer vessels • 7) Closed the window, and put the embryos back into the hatch box to hatch for 2 days. • 8) Opened the transparent tape, and then opened the mixed cellulose membrane lightly with a tweezers. Measured the avascular area and took photographs.

VEGFR-2, sequence (P35968 20-1356): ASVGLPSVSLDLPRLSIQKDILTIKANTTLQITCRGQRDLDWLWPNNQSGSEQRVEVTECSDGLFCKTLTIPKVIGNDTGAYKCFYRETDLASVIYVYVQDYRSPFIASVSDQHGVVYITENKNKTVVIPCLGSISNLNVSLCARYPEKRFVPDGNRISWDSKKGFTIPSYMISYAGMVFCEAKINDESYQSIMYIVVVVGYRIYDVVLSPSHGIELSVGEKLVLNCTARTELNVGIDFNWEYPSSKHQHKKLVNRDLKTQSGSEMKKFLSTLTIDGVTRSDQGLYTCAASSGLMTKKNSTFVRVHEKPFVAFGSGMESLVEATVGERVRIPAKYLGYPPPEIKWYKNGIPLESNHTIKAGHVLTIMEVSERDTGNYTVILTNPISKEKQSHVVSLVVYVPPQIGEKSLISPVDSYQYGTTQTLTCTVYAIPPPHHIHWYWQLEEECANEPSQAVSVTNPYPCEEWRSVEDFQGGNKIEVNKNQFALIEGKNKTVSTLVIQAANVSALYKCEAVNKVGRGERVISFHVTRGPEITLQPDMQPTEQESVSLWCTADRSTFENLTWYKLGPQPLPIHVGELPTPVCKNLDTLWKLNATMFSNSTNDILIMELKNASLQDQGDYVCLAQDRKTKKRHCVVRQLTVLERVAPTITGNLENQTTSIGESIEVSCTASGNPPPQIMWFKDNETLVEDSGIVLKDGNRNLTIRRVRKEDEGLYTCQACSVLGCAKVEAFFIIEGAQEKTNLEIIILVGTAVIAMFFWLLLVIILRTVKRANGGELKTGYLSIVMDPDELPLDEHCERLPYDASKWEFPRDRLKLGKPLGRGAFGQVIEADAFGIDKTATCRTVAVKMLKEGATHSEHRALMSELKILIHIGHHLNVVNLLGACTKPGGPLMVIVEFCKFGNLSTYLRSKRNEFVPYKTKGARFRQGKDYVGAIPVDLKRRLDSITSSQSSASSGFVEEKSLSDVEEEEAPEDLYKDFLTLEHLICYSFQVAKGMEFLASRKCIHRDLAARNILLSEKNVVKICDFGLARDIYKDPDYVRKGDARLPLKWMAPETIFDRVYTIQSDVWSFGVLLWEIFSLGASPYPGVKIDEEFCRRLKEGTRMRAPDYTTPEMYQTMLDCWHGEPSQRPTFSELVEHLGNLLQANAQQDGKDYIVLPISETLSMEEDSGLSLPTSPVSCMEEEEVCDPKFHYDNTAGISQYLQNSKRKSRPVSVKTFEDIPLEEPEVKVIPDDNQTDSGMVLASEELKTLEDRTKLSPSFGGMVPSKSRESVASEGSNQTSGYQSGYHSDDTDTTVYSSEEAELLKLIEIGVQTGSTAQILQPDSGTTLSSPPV

Compound	IC50 [1] [µM]	IC50 [2] [µM]	IC50 [3] [µM]	IC50 [4] [µM]	IC50 [5] [µM]	IC50 [6] [µM]	IC50 [7] [µM]	IC50 [8] [µM]	IC50 [9] [µM]	LD50 at 1 week (in vivo) [mg/kg]	Rat Aortic Ring Assay (10 ug/ml), result in words (Rat aortic ring)	Kinase inhibition rate (VEGFR-2) (VEGFR-2)	The inhibitory effect on the growth of chorioallantoic membrane vessels [10]
FC(F)(F)Oc1cccc(Nc2nnnc3ccc(Cl)nc23)c1 [Example 86, 6-chloro-4-(3-trifluoromethoxyanilino)pyrido[3,2-d][1,2,3]triazine]	4.28	4.67	2.21	4.13	4.14	5.99	6.42	4.55	4.71	292	Almost complete inhibition (10 μg/mL), vascular ring was dead	29.93	
CCCCOc1cc2nnnc(Nc3ccc(C)cc3)c2cc1OC [Example 27, 6-methoxy-7-n-butoxy-4-(4-methylanilino)-benzo[d][1,2,3]triazine]	9.09	22.2	5.06	15.7	15.1	15.8	18.4	6.17	19.6	733			
COc1cc2c(Nc3ccc(F)c(Cl)c3)nnnc2cc1OCCCCl [Example 72, 6-methoxy-7-chloropropoxy-4-(3-chloro-4-fluoroanilino)-benzo[d][1,2,3]triazine]	7.98	5.19	3.73	3.79	4.96	6.91	5.04					−14.70	
Clc1ccc(Nc2nnc(Cc3ccncc3)c3ccccc23)cc1 [PTK787, Vatalanib succinate, reference compound]	38.1	21.4	> 40	35	41.3	63.7	36.3	12.3	24.2				There is no vascular growth.
FC(F)(F)c1cccc(Nc2nnnc3ccc(Cl)nc23)c1 [Example 84, 6-chloro-4-(3-trifluoromethylanilino)pyrido[3,2-d][1,2,3]triazine]	5.25	4.28	3.02	4.79	5.9	6.9	5.87	3.95	5.1	424	Almost complete inhibition (10 μg/mL), vascular ring was dead		
